{"source": "paper PMC4812296", "about": "“A chemical family-based strategy for uncovering hidden bioactive molecules and multicomponent interactions in herbal medicines” (Scientific Reports, 2016)"}
{"target": "T1, thrombin (Bos taurus, UniProt P00735)", "T1 construct": "gene F2", "experiment": "chromogenic S-2238 hydrolysis assay, bovine plasma thrombin", "assay_type": "biochemical", "units": {"IC50": "µM"}}
{"smiles": "Cc1cccc2c3c(ccc12)C1=C(C(=O)C3=O)[C@@H](C)CO1", "note": "(single isomer, unassigned) [peak 15, Dihydrotanshinone I]", "IC50": "92 ± 5"}
{"smiles": "C[C@H]1COC2=C1C(=O)C(=O)c1c2ccc2c1CCCC2(C)C", "note": "(single isomer, unassigned) [peak 16, Cryptotanshinone]", "IC50": "102 ± 4"}
{"smiles": "Cc1coc2c1C(=O)C(=O)c1c-2ccc2c(C)cccc12", "note": "[peak 17, Tanshinone I]", "IC50": "333 ± 28"}
{"smiles": "Cc1coc2c1C(=O)C(=O)c1c-2ccc2c1CCCC2(C)C", "note": "[peak 18, Tanshinone IIA]", "IC50": "39 ± 1"}
